# Measured values: the NIST ThermoML archive (doi:10.1016/j.fluid.2011.11.030)
# ± gives the expanded uncertainty stated by the source.
# Details: 101.33 kPa, Liquid; for viscosity: Capillary tube (Ostwald / Ubbelohde) method; for mass density: Pycnometric method
viscosity (298.15 K) [mPa·s],mass density (298.15 K) [kg/m3],viscosity (323.15 K) [mPa·s],mass density (323.15 K) [kg/m3],viscosity (348.15 K) [mPa·s],mass density (348.15 K) [kg/m3],viscosity (373.15 K) [mPa·s],mass density (373.15 K) [kg/m3],Structure (SMILES)
279.4 ± 29,1233 ± 2,79.8 ± 8.1,1215 ± 2,32.5 ± 3.3,1196 ± 2,15.3 ± 1.5,1176 ± 2,CCCCCCCCn1cc[n+](C)c1.O=S(=O)([O-])C(F)(F)C(F)F
30.1 ± 3.2,1065 ± 3,13.5 ± 1.6,1050 ± 3,7.7 ± 1.1,1036 ± 3,4.9 ± 0.9,1026 ± 3,CCCCn1cc[n+](C)c1.N#CN=C=[N-] [1-butyl-3-methylimidazolium dicyanamide]
205.5 ± 21,1185 ± 2,52.7 ± 5.3,1171 ± 2,21.3 ± 2.1,1154 ± 2,10.5 ± 1.1,1144 ± 2,CCCC[n+]1ccc(C)cc1.F[B-](F)(F)F [1-butyl-4-methylpyridinium tetrafluoroborate]
